Reference: the supplement of paper PMC10627819
Values after ≈ are worked out from the molar mass of the structure shown.

Legend:
S. aureus DSM 20231 [1] = system: S. aureus DSM 20231
B. subtilis 168 [2] = system: B. subtilis 168
S. aureus Newman [3] = system: S. aureus Newman
S. pneumoniae D39V [4] = system: S. pneumoniae D39V
S. aureus DSM 20231 [5] = assay: fitness (endpoint OD595 vs no drug) (fraction); higher = more growth
How it was run: (§1)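 With the first reading as background, OD595 was measured every 30 min for 14 h in 384-well plates kept at 37 °C and inoculated at OD595 0.01. TSB, LB Lennox or CY was the medium. Fitness is the optical density at the transition into stationary phase divided by the robust mean of no-drug control wells, with a cap of 1.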

B. subtilis 168 [6] = assay: as above
How it was run: as §1

S. aureus Newman [7] = assay: as above
How it was run: as §1

S. pneumoniae D39V [8] = assay: as above
How it was run: as §1

S. aureus DSM 20231 [9] = assay: Bliss interaction score (quartile over a dose matrix) (fitness difference); higher = more antagonism (negative = synergy)
How it was run: (§2)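 Fitness was defined as normalised growth: OD595 at the start of stationary phase divided by the plate's robust no-drug mean and capped at 1. Single-drug fitness was inferred from combination measurements. The Bliss score is observed fitness minus the product of the single-drug values, summarised by quartiles across technical, biological and donor/recipient replicates.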

B. subtilis 168 [10] = assay: as above
How it was run: as §2

S. aureus Newman [11] = assay: as above
How it was run: as §2

S. pneumoniae D39V [12] = assay: as above
How it was run: as §2
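Throughout, for Bliss interaction score (quartile over a dose matrix): first quartile when negative (synergy) and third quartile when positive (antagonism).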

CC[C@H]1OC(=O)[C@H](C)[C@@H](O[C@H]2C[C@@](C)(OC)[C@@H](O)[C@H](C)O2)[C@H](C)[C@@H](O[C@@H]2O[C@H](C)C[C@H](N(C)C)[C@H]2O)[C@](C)(O)C[C@@H](C)CN(C)[C@H](C)[C@@H](O)[C@]1(C)O [Azithromycin]
Settings	MIC [µg/mL]
B. subtilis 168 [2]	2 (≈ 2.67 µM)
S. aureus DSM 20231 [1]	0.556 (≈ 0.742 µM)
S. aureus Newman [3]	0.5 (≈ 0.668 µM)
S. pneumoniae D39V [4]	2 (≈ 2.67 µM)

fitness
Settings	0.125 µg/mL	0.25 µg/mL	0.5 µg/mL	1 µg/mL	2 µg/mL
B. subtilis 168 [6]	–	0.891	0.869	0.699	0.0641
S. aureus DSM 20231 [5]	0.994	0.914	0.508	0.834	–
S. aureus Newman [7]	0.93	0.901	0.706	–	–
S. pneumoniae D39V [8]	–	0.524	0.323	0.096	–

CC1=C(C(=O)O)N2C(=O)[C@@H](NC(=O)[C@H](N)c3ccccc3)[C@H]2SC1 [Cephalexin]
Settings	MIC [µg/mL]
S. aureus DSM 20231 [1]	4 (≈ 11.5 µM)
S. aureus Newman [3]	4 (≈ 11.5 µM)
S. pneumoniae D39V [4]	4 (≈ 11.5 µM)

fitness
Settings	0.125 µg/mL	0.25 µg/mL	0.5 µg/mL	1 µg/mL	2 µg/mL	4 µg/mL
B. subtilis 168 [6]	0.925	0.917	0.937	0.939	–	–
S. aureus Newman [7]	–	0.987	≥ 1	≥ 1	≥ 1	–
S. pneumoniae D39V [8]	–	–	–	0.649	0.29	0.0479

O=C(O)[C@H]1/C(=C/CO)O[C@@H]2CC(=O)N21 [Clavulanic acid]
Settings	MIC [µg/mL]
B. subtilis 168 [2]	8 (≈ 40.2 µM)
S. aureus DSM 20231 [1]	0.5 (≈ 2.51 µM)
S. aureus Newman [3]	0.5 (≈ 2.51 µM)
S. pneumoniae D39V [4]	2 (≈ 10 µM)

fitness
Settings	0.5 µg/mL	1 µg/mL	1.5 µg/mL	2 µg/mL	3 µg/mL	6 µg/mL
B. subtilis 168 [6]	–	–	0.899	–	0.887	0.769
S. pneumoniae D39V [8]	0.966	0.939	–	0.867	–	–

CNC(C)C1CCC(N)C(OC2C(N)CC(N)C(OC3OCC(C)(O)C(NC)C3O)C2O)O1 (configuration not stated) [Gentamicin]
main component drawn
Settings	MIC [µg/mL]
B. subtilis 168 [2]	0.25 (≈ 0.523 µM)
S. aureus DSM 20231 [1]	2 (≈ 4.19 µM)
S. aureus Newman [3]	2 (≈ 4.19 µM)
S. pneumoniae D39V [4]	18 (≈ 37.7 µM)

main component drawn
Settings	fitness
B. subtilis 168 [6], 0.0625 µg/mL	0.887
B. subtilis 168 [6], 0.125 µg/mL	0.131
B. subtilis 168 [6], 0.25 µg/mL	0.0542
S. aureus DSM 20231 [5], 0.5 µg/mL	≥ 1
S. aureus DSM 20231 [5], 1 µg/mL	≥ 1
S. aureus DSM 20231 [5], 2 µg/mL	0.984
S. aureus DSM 20231 [5], 4 µg/mL	0.129
S. aureus Newman [7], 0.375 µg/mL	≥ 1
S. aureus Newman [7], 0.5 µg/mL	0.996
S. aureus Newman [7], 0.75 µg/mL	≥ 1
S. aureus Newman [7], 1 µg/mL	0.992
S. aureus Newman [7], 1.5 µg/mL	0.583
S. aureus Newman [7], 2 µg/mL	0.999
S. aureus Newman [7], 4 µg/mL	0.302
S. pneumoniae D39V [8], 2 µg/mL	1
S. pneumoniae D39V [8], 4 µg/mL	0.986
S. pneumoniae D39V [8], 8 µg/mL	0.962

Clc1ccc(COC(Cn2ccnc2)c2ccc(Cl)cc2Cl)c(Cl)c1 (configuration not stated) [Miconazole]
Settings	MIC [µg/mL]
B. subtilis 168 [2]	5 (≈ 12 µM)
S. aureus DSM 20231 [1]	5 (≈ 12 µM)
S. aureus Newman [3]	3 (≈ 7.21 µM)
S. pneumoniae D39V [4]	10 (≈ 24 µM)

S. pneumoniae D39V [8]
Settings	fitness
1.25 µg/mL	0.907
2.5 µg/mL	0.893
5 µg/mL	0.926

Cc1onc(-c2ccccc2)c1C(=O)N[C@@H]1C(=O)N2[C@@H]1SC(C)(C)[C@@H]2C(=O)O [Oxacillin]
Settings	MIC [µg/mL]
S. aureus DSM 20231 [1]	0.069 (≈ 0.172 µM)
S. aureus Newman [3]	0.069 (≈ 0.172 µM)
S. pneumoniae D39V [4]	0.031 (≈ 0.0772 µM)

Settings	fitness
B. subtilis 168 [6], 0.002 µg/mL	0.925
B. subtilis 168 [6], 0.004 µg/mL	0.936
B. subtilis 168 [6], 0.0078 µg/mL	0.941
B. subtilis 168 [6], 0.008 µg/mL	0.962
B. subtilis 168 [6], 0.0155 µg/mL	0.952
B. subtilis 168 [6], 0.031 µg/mL	0.902
S. aureus DSM 20231 [5], 0.0156 µg/mL	0.972
S. aureus DSM 20231 [5], 0.0312 µg/mL	0.889
S. aureus DSM 20231 [5], 0.0625 µg/mL	0.621
S. aureus Newman [7], 0.0156 µg/mL	0.843
S. aureus Newman [7], 0.0312 µg/mL	0.759
S. aureus Newman [7], 0.0625 µg/mL	0.608
S. pneumoniae D39V [8], 0.005 µg/mL	≥ 1
S. pneumoniae D39V [8], 0.01 µg/mL	0.996
S. pneumoniae D39V [8], 0.02 µg/mL	0.986
S. pneumoniae D39V [8], 0.04 µg/mL	0.515

C[n+]1ccc(-c2cc[n+](C)cc2)cc1 [Paraquat]
Settings	MIC [µg/mL]
B. subtilis 168 [2]	50
S. aureus DSM 20231 [1]	50
S. aureus Newman [3]	50
S. pneumoniae D39V [4]	10

fitness
Settings	1.25 µg/mL	1.5 µg/mL	2.5 µg/mL	3 µg/mL	5 µg/mL	6 µg/mL
B. subtilis 168 [6]	0.912	–	0.899	–	0.848	–
S. aureus DSM 20231 [5]	≥ 1	–	0.99	–	0.988	–
S. aureus Newman [7]	0.986	–	0.944	–	0.94	–
S. pneumoniae D39V [8]	–	0.992	–	0.993	–	0.965

Cn1c2cccc(=O)c-2nc2ccccc21 [Pyocyanin]
Settings	MIC [µg/mL]
B. subtilis 168 [2]	5 (≈ 23.8 µM)
S. aureus DSM 20231 [1]	5 (≈ 23.8 µM)
S. aureus Newman [3]	5 (≈ 23.8 µM)
S. pneumoniae D39V [4]	1.44 (≈ 6.85 µM)

fitness
Settings	0.325 µg/mL	0.65 µg/mL	1.25 µg/mL	1.3 µg/mL	2.5 µg/mL	5 µg/mL
B. subtilis 168 [6]	–	–	0.886	–	0.841	0.708
S. aureus DSM 20231 [5]	–	–	0.997	–	0.892	0.59
S. aureus Newman [7]	–	–	0.896	–	0.843	0.399
S. pneumoniae D39V [8]	≥ 1	0.991	–	0.835	–	–

Cn1c2cccc(=O)c-2nc2ccccc21 [Pyocyanin] + CC1=C\[C@@H](O)CC(=O)Cc2nc(co2)C(=O)N2CCC=C2C(=O)O[C@H](C(C)C)[C@H](C)/C=C/C(=O)NC\C=C\1 [Virginiamycin M1]
fitness
Settings	B. subtilis 168 [6]	S. aureus DSM 20231 [5]	S. aureus Newman [7]	S. pneumoniae D39V [8]
first compound 0.325 µg/mL, partner 0.5 µg/mL	–	–	–	≥ 1
first compound 0.325 µg/mL, partner 1 µg/mL	–	–	–	≥ 1
first compound 0.325 µg/mL, partner 2 µg/mL	–	–	–	0.969
first compound 0.65 µg/mL, partner 0.5 µg/mL	–	–	–	≥ 1
first compound 0.65 µg/mL, partner 1 µg/mL	–	–	–	≥ 1
first compound 0.65 µg/mL, partner 2 µg/mL	–	–	–	0.992
first compound 1.25 µg/mL, partner 0.0625 µg/mL	0.924	0.883	0.823	–
first compound 1.25 µg/mL, partner 0.125 µg/mL	0.89	0.923	0.833	–
first compound 1.25 µg/mL, partner 0.25 µg/mL	0.885	0.808	0.823	–
first compound 1.3 µg/mL, partner 2 µg/mL	–	–	–	0.828
first compound 2.5 µg/mL, partner 0.0625 µg/mL	0.862	0.854	0.752	–
first compound 2.5 µg/mL, partner 0.125 µg/mL	0.84	0.86	0.766	–
first compound 2.5 µg/mL, partner 0.25 µg/mL	0.857	0.89	0.776	–
first compound 5 µg/mL, partner 0.0625 µg/mL	0.734	0.562	0.369	–
first compound 5 µg/mL, partner 0.125 µg/mL	0.741	0.589	0.422	–
first compound 5 µg/mL, partner 0.25 µg/mL	0.758	0.621	0.352	–

fitness, one replicate
Settings	partner 0.15 µg/mL	partner 0.3 µg/mL	partner 0.5 µg/mL	partner 1 µg/mL	partner 2 µg/mL
S. aureus DSM 20231 [5], first compound 1.25 µg/mL	–	–	0.913	0.882	–
S. aureus DSM 20231 [5], first compound 2.5 µg/mL	–	–	0.816	0.787	–
S. aureus DSM 20231 [5], first compound 5 µg/mL	–	–	0.556	0.616	–
S. aureus Newman [7], first compound 1.25 µg/mL	–	–	0.921	≥ 1	0.92
S. aureus Newman [7], first compound 2.5 µg/mL	–	–	0.939	0.965	0.952
S. aureus Newman [7], first compound 5 µg/mL	–	–	0.844	0.885	0.734
S. pneumoniae D39V [8], first compound 0.325 µg/mL	≥ 1	0.988	–	–	–
S. pneumoniae D39V [8], first compound 0.65 µg/mL	≥ 1	0.994	–	–	–
S. pneumoniae D39V [8], first compound 1.3 µg/mL	0.935	0.859	0.878	0.815	–

Settings	Bliss interaction score
B. subtilis 168 [10]	-0.0635
S. aureus DSM 20231 [9]	-0.0636
S. aureus Newman [11]	0.0515
S. pneumoniae D39V [12]	0.0505

Cn1c2cccc(=O)c-2nc2ccccc21 [Pyocyanin] + CN(N=O)C(=O)N[C@@H](C=O)[C@@H](O)[C@H](O)[C@H](O)CO [Streptozotocin]
fitness
Settings	partner 0.15 µg/mL	partner 0.3 µg/mL	partner 0.6 µg/mL	partner 1.2 µg/mL	partner 2.4 µg/mL	partner 4.8 µg/mL
S. aureus DSM 20231 [5], first compound 1.25 µg/mL	0.836	0.852	0.711	–	–	–
S. aureus DSM 20231 [5], first compound 2.5 µg/mL	0.803	0.772	0.676	–	–	–
S. aureus DSM 20231 [5], first compound 5 µg/mL	0.626	0.617	0.517	–	–	–
S. aureus Newman [7], first compound 1.25 µg/mL	0.788	0.633	0.494	–	–	–
S. aureus Newman [7], first compound 2.5 µg/mL	0.695	0.591	0.385	–	–	–
S. aureus Newman [7], first compound 5 µg/mL	0.265	0.249	0.167	–	–	–
S. pneumoniae D39V [8], first compound 0.325 µg/mL	–	–	–	0.951	0.912	0.928
S. pneumoniae D39V [8], first compound 0.65 µg/mL	–	–	–	0.973	0.964	0.965

fitness, one replicate
Settings	partner 0.15 µg/mL	partner 0.3 µg/mL	partner 0.6 µg/mL	partner 1.2 µg/mL	partner 2.4 µg/mL	partner 4.8 µg/mL
B. subtilis 168 [6], first compound 1.25 µg/mL	0.99	0.918	0.96	–	–	–
B. subtilis 168 [6], first compound 2.5 µg/mL	0.777	0.903	0.873	–	–	–
B. subtilis 168 [6], first compound 5 µg/mL	0.687	0.729	0.777	–	–	–
S. pneumoniae D39V [8], first compound 1.3 µg/mL	–	–	–	0.626	0.683	0.783

Settings	Bliss interaction score
B. subtilis 168 [10]	-0.0597
S. aureus DSM 20231 [9]	0.0692
S. aureus Newman [11]	-0.0417
S. pneumoniae D39V [12]	-0.0715
